{"source": "patent US20130252890A1", "about": "“6,7-DIHYDRO-5H-BENZO[7]ANNULENE DERIVATIVES, PROCESS FOR PREPARATION THEREOF, PHARMACEUTICAL PREPARATIONS COMPRISING THEM, AND THE USE THEREOF FOR PRODUCTION OF MEDICAMENTS” (BAYER INTELLECTUAL PROPERTY GMBH, priority 2010, published 2013)", "note": "pIC50: −log10 of the molar value."}
{"target": "T1, oestrogen receptor (ER) (Homo sapiens, UniProt P03372)", "T1 construct": "These MVLN cells express, along with the functional oestrogen receptor (ER), a reporter construct; endogenous in cells; host or cells: MVLN cells (MCF7 derivative carrying a luciferase reporter construct)", "T1 sequence (P03372 1-595)": "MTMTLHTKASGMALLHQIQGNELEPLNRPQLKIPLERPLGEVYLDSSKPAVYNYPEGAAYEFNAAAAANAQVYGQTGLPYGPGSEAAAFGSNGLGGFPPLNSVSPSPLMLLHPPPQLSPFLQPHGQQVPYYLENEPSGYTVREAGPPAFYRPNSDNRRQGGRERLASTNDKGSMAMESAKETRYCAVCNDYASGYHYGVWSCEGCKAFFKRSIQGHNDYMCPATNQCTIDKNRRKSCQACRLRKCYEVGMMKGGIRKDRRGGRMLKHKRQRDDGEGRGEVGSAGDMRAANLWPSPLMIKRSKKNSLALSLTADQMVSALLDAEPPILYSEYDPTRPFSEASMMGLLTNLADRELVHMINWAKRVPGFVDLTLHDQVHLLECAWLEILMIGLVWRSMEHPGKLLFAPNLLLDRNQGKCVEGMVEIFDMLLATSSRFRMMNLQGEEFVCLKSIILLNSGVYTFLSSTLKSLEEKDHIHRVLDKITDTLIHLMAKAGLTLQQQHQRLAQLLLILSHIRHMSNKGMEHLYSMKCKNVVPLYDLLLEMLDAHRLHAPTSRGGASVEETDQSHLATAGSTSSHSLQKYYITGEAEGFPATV", "test": "Anti-oestrogenic action in MVLN cells (inhibition of estradiol-induced luciferase)", "type": "cell-based", "details": "inhibition of estradiol-induced luciferase signal, value of Ex. 44 is a mean value, read-out: Antioestrogenic action in vitro: MVLN transactivation antagonism IC50", "excerpt": "The anti-oestrogenic action of the claimed pharmacological compounds was investigated in so-called MVLN cells in vitro. MVLN cells are derivatives of the hormone-responsive MCF7 breast cancer cells known by a person skilled in the art. These MVLN cells express, along with the functional oestrogen receptor (ER), a reporter construct, which under ER-activation expresses luciferase. Determination of the activity of the induced luciferase permits a direct conclusion on the oestrogen properties of substances. To investigate the anti-oestrogenic properties of the pharmacological compounds, they were investigated in the presence of oestrogen for their potential for inhibiting the luciferase signal induced by estradiol. The claimed pharmacological test substances were investigated in MVLN cells for their anti-oestrogenic potential, as described (see Table 2)."}
{"smiles": "CN(CCCCCCC1=C(c2ccc(F)cc2F)CCCc2cc(O)ccc21)CCCCS(=O)(=O)CCCC(F)(F)F", "note": "[Example 132, 8-(2,4-Difluorophenyl)-9-[6-(methyl{4-[(4,4,4-trifluorobutyl)sulphonyl]butyl}amino)hexyl]-6,7-dihydro-5H-benzo[7]annulen-3-ol]", "pIC50": 8.40}
{"smiles": "CS(=O)(=O)N(CCCCCCC1=C(c2ccc(F)cc2)CCCc2cc(O)ccc21)CCCCS(=O)(=O)CCCC(F)(F)F", "note": "[Example 91, N-{6-[8-(4-Fluorophenyl)-3-hydroxy-6,7-dihydro-5H-benzo[7]annulen-9-yl]hexyl}-N-{4-[(4,4,4-trifluorobutyl)sulphonyl]butyl}methanesulphonamide]", "pIC50": 7.17}
{"smiles": "CN(CCCCCCC1=C(c2ccc(F)cc2)CCCc2c1ccc(O)c2F)CCC[S+]([O-])CCCC(F)(F)C(F)(F)F", "note": "(stereo not drawn) [Example 42, 4-Fluoro-8-(4-fluorophenyl)-9-[6-(methyl{3-[(4,4,5,5,5-pentafluoropentyl)sulphinyl]propyl}amino)hexyl]-6,7-dihydro-5H-benzo[7]annulen-3-ol]", "pIC50": 7.89}
{"smiles": "COC(=O)CN(CCCCCCC1=C(c2ccc(F)cc2)CCCc2cc(O)ccc21)CCCCS(=O)(=O)CCCC(F)(F)F", "note": "[Example 82, Methyl-N-{6-[8-(4-fluorophenyl)-3-hydroxy-6,7-dihydro-5H-benzo[7]annulen-9-yl]hexyl}-N-{4-[(4,4,4-trifluorobutyl)sulphonyl]butyl}glycinate]", "pIC50": 7.89}
{"smiles": "O=S(=O)(CCCN(CCCO)CCCCCCC1=C(c2ccc(F)cc2)CCCc2c1ccc(O)c2F)CCCC(F)(F)C(F)(F)F", "note": "[Example 60, 4-Fluoro-8-(4-fluorophenyl)-9-{6-[(3-hydroxypropyl){3-[(4,4,5,5,5-pentafluoropentyl)sulphonyl]propyl}amino]hexyl}-6,7-dihydro-5H-benzo[7]annulen-3-ol]", "pIC50": 7.82}
{"smiles": "O=C(CN(CCCCCCC1=C(c2ccc(F)cc2)CCCc2cc(O)ccc21)CCCCS(=O)(=O)CCCC(F)(F)F)OCc1ccccc1", "note": "[Example 81, Benzyl-N-{6-[8-(4-fluorophenyl)-3-hydroxy-6,7-dihydro-5H-benzo[7]annulen-9-yl]hexyl}-N-{4-[(4,4,4-trifluorobutyl)sulphonyl]butyl}glycinate]", "pIC50": 7.40}
{"smiles": "CN(CCCCCCC1=C(c2ccc(F)c(F)c2)CCCc2cc(O)ccc21)CCCCCS(=O)(=O)CCC(F)(F)F", "note": "[Example 71, 8-(3,4-Difluorophenyl)-9-[6-(methyl{5-[(3,3,3-trifluoropropyl)sulphonyl]pentyl}amino)hexyl]-6,7-dihydro-5H-benzo[7]annulen-3-ol]", "pIC50": 7.25}
{"smiles": "CN(CCCCCCC1=C(c2ccc(F)cc2F)CCCc2cc(O)ccc21)CCCS(=O)(=O)CCCC(F)(F)C(F)(F)F", "note": "[Example 128, 8-(2,4-Difluorophenyl)-9-[6-(methyl{3-[(4,4,5,5,5-pentafluoropentyl)sulphonyl]propyl}amino)hexyl]-6,7-dihydro-5H-benzo[7]annulen-3-ol]", "pIC50": 8.22}
{"smiles": "O=C(O)CCN(CCCCCCC1=C(c2ccc(F)cc2)CCCc2cc(O)ccc21)CCCCS(=O)(=O)CCCC(F)(F)F", "note": "[Example 95, N-{6-[8-(4-Fluorophenyl)-3-hydroxy-6,7-dihydro-5H-benzo[7]annulen-9-yl]hexyl}-N-{4-[(4,4,4-trifluorobutyl)sulphonyl]butyl}-beta-alanine]", "pIC50": 7.72}
{"smiles": "CN(CCCCCCC1=C(c2ccc(F)cc2)CCCc2c1ccc(O)c2F)CCCS(=O)(=O)CCCC(F)(F)F", "note": "[Example 149, 4-Fluoro-8-(4-fluorophenyl)-9-[6-(methyl{3-[(4,4,4-trifluorobutyl)sulphonyl]propyl}amino)hexyl]-6,7-dihydro-5H-benzo[7]annulen-3-ol]", "pIC50": 7.85}
{"smiles": "CN(CCCCCC1=C(c2ccc(F)cc2)CCCc2cc(O)ccc21)CCCS(=O)(=O)CCCC(F)(F)C(F)(F)F", "note": "[Example 127]", "pIC50": 7.16}
{"smiles": "CN(CCCCCCC1=C(c2ccc(F)cc2)CCCc2c1ccc(O)c2F)CCCS(=O)(=O)CCCC(F)(F)F", "note": "[Example 38, 4-Fluoro-8-(4-fluorophenyl)-9-[6-(methyl{3-[(4,4,4-trifluorobutyl)sulphonyl]propyl}amino)hexyl]-6,7-dihydro-5H-benzo[7]annulen-3-ol]", "pIC50": 7.57}
{"smiles": "CN(CCCCCCC1=C(c2ccc(F)cc2)CCCc2cc(O)c(F)cc21)CCCS(=O)(=O)CCCC(F)(F)C(F)(F)F", "note": "[Example 99, 2-Fluoro-8-(4-fluorophenyl)-9-[6-(methyl{3-[(4,4,5,5,5-pentafluoropentyl)sulphonyl]propyl}amino)hexyl]-6,7-dihydro-5H-benzo[7]annulen-3-ol]", "pIC50": 7.82}
{"smiles": "CC(C)(C)N(CCCCCCC1=C(c2ccc(F)cc2)CCCc2c1ccc(O)c2F)CCCS(=O)(=O)CCCC(F)(F)C(F)(F)F", "note": "[Example 63, 9-[6-(tert-Butyl{3-[(4,4,5,5,5-pentafluoropentyl)sulphonyl]propyl}amino)hexyl]-4-fluoro-8-(4-fluorophenyl)-6,7-dihydro-5H-benzo[7]annulen-3-ol]", "pIC50": 7.02}
{"smiles": "CN(CCCCCCC1=C(c2ccc(F)cc2)CCCc2cc(O)c(F)cc21)CCCS(=O)(=O)CCCCCC(F)(F)F", "note": "[Example 140, 2-Fluoro-8-(4-fluorophenyl)-9-[6-(methyl{3-[(6,6,6-trifluorohexyl)sulphonyl]propyl}amino)hexyl]-6,7-dihydro-5H-benzo[7]annulen-3-ol]", "pIC50": 8.40}
{"smiles": "O=S(=O)(CCCN(CCF)CCCCCCC1=C(c2ccc(F)cc2)CCCc2cc(O)ccc21)CCCC(F)(F)C(F)(F)F", "note": "[Example 74, 9-{6-[(2-Fluoroethyl){3-[(4,4,5,5,5-pentafluoropentyl)sulphonyl]propyl}amino]hexyl}-8-(4-fluorophenyl)-6,7-dihydro-5H-benzo[7]annulen-3-ol]", "pIC50": 7.55}
{"smiles": "CC(C)(O)CN(CCCCCCC1=C(c2ccc(F)cc2)CCCc2cc(O)ccc21)CCCS(=O)(=O)CCC(F)(F)F", "note": "[Example 119, 8-(4-fluorophenyl)-9-{6-[(2-hydroxy-2-methylpropyl){3-[(3,3,3-trifluoropropyl)sulphonyl]propyl}amino]hexyl}-6,7-dihydro-5H-benzo[7]annulen-3-ol]", "pIC50": 7.10}
{"smiles": "C[C@H](O)CN(CCCCCCC1=C(c2ccc(F)cc2)CCCc2cc(O)ccc21)CCCCS(=O)(=O)CCCC(F)(F)F", "note": "[Example 93, 8-(4-Fluorophenyl)-9-[6-([(2S)-2-hydroxypropyl]{4-[(4,4,4-trifluorobutyl)sulphonyl]butyl}amino)hexyl]-6,7-dihydro-5H-benzo[7]annulen-3-ol]", "pIC50": 8.30}
{"smiles": "CN(CCCCCCC1=C(c2ccc(F)cc2)CCCc2cc(O)c(F)cc21)CCCCS(=O)(=O)C1CCC(F)(F)CC1", "note": "[Example 144, 9-{6-[{4-[(4,4-Difluorocyclohexyl)sulphonyl]butyl}(methyl)amino]hexyl}-2-fluoro-8-(4-fluorophenyl)-6,7-dihydro-5H-benzo[7]annulen-3-ol]", "pIC50": 8.00}
{"smiles": "CN(CCCCCCC1=C(c2ccc(F)cc2F)CCCc2cc(O)ccc21)CCCS(=O)(=O)CCC(F)(F)C(F)(F)F", "note": "[Example 145, 8-(2,4-Difluorophenyl)-9-[6-(methyl{3-[(3,3,4,4,4-pentafluorobutyl)sulphonyl]propyl}amino)hexyl]-6,7-dihydro-5H-benzo[7]annulen-3-ol]", "pIC50": 7.66}
{"smiles": "CN(CCCCCCC1=C(c2ccc(F)c(F)c2)CCCc2cc(O)ccc21)CCCCS(=O)(=O)CCCC(F)(F)C(F)(F)F", "note": "[Example 25, 8-(3,4-Difluorophenyl)-9-[6-(methyl{4-[(4,4,5,5,5-pentafluoropentyl)sulphonyl]butyl}amino)hexyl]-6,7-dihydro-5H-benzo[7]annulen-3-ol]", "pIC50": 7.55}
{"smiles": "O=S(=O)(CCCN(CCF)CCCCCCC1=C(c2ccc(F)cc2)CCCc2c1ccc(O)c2F)CCCC(F)(F)C(F)(F)F", "note": "[Example 85, 4-Fluoro-9-{6-[(2-fluoroethyl){3-[(4,4,5,5,5-pentafluoropentyl)sulphonyl]propyl}amino]hexyl}-8-(4-fluorophenyl)-6,7-dihydro-5H-benzo[7]annulen-3-ol]", "pIC50": 7.29}
{"smiles": "CN(CCCCCCC1=C(c2cc(F)cc(F)c2)CCCc2cc(O)ccc21)CCCS(=O)(=O)CCC(F)(F)F", "note": "[Example 6, 8-(3,5-Difluorophenyl)-9-[6-(methyl{3-[(3,3,3-trifluoropropyl)sulphonyl]propyl}amino)hexyl]-6,7-dihydro-5H-benzo[7]annulen-3-ol]", "pIC50": 6.74}
{"smiles": "[2H]C([2H])([2H])N(CCCCCCC1=C(c2ccc(F)cc2F)CCCc2cc(O)ccc21)CCCS(=O)(=O)CCCCC(F)(F)F", "note": "[Example 136, 8-(2,4-Difluorophenyl)-9-{6-[(^2H3)methyl{3-[(5,5,5-trifluoropentyl)sulphonyl]propyl}amino]hexyl}-6,7-dihydro-5H-benzo[7]annulen-3-ol]", "pIC50": 8.05}
